Source: article PMC2919811 (Analytical biochemistry, 2010)

Experiments:
Format in all cases: cell-based
Details in all cases: 10 μM 8-FcA, 20 minutes
OCT1 = target: T1, OCT1 (Homo sapiens, UniProt O15245); experiment: Cellular accumulation in CHO cells transiently transfected with OCT1
T1 sequence (O15245 1-554): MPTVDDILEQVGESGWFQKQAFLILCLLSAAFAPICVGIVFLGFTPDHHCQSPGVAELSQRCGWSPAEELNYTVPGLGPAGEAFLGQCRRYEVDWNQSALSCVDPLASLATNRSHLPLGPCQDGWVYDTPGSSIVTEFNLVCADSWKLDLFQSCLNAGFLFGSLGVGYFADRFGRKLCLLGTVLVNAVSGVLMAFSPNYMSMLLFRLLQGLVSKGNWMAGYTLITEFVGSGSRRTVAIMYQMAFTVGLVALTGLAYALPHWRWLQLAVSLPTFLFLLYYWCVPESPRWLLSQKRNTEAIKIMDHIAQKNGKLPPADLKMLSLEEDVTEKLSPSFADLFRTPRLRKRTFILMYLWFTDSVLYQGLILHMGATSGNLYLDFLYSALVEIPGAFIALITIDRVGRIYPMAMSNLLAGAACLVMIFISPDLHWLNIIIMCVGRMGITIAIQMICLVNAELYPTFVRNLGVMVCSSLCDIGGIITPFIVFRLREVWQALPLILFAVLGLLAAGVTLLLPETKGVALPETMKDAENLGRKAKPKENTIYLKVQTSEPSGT

OCT2 = target: T2, OCT2 (Homo sapiens, UniProt O15244); experiment: Cellular accumulation in CHO cells transiently transfected with OCT2
T2 sequence (O15244 1-555): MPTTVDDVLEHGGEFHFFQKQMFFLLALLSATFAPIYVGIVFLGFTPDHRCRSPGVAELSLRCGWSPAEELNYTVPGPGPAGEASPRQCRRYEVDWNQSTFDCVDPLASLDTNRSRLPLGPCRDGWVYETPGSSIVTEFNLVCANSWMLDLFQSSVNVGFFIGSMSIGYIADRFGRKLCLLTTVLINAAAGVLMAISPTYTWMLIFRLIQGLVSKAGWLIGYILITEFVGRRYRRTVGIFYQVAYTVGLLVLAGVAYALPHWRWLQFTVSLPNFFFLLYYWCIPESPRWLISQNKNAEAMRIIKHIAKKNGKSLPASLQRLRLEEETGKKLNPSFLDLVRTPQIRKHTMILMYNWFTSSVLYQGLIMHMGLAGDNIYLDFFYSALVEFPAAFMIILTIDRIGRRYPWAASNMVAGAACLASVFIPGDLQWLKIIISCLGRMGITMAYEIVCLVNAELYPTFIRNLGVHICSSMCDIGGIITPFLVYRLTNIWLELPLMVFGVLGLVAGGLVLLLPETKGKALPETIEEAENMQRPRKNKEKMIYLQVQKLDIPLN

OAT3 = target: T3, OAT3 (Homo sapiens, UniProt Q8TCC7)
T3 sequence (Q8TCC7 1-542): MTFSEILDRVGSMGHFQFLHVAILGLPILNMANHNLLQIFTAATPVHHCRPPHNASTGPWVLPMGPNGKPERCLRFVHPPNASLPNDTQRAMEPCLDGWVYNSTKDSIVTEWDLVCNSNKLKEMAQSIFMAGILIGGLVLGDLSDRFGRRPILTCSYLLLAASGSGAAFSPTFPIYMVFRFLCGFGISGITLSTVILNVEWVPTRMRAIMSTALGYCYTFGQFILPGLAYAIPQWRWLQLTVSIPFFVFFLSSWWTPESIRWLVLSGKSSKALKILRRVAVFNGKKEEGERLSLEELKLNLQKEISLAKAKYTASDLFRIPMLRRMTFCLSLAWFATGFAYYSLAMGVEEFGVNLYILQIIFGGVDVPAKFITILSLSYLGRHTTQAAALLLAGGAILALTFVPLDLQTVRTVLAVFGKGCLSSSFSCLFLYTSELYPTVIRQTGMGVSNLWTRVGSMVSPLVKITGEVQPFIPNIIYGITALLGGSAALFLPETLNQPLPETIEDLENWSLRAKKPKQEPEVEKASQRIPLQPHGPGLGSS

Nc1ncnc2c1nc(SCCNC(=S)Nc1ccc(-c3c4ccc(=O)cc-4oc4cc(O)ccc34)c(C(=O)O)c1)n2[C@@H]1O[C@@H]2COP(=O)(O)O[C@H]2[C@H]1O [8-FcA, 8-(2-[Fluoresceinyl]aminoethylthio) adenosine-3', 5'-cyclic monophosphate]
negative: cellular accumulation by fluorescence microscopy, OCT1 (OCT1) | cellular accumulation by fluorescence microscopy, OCT2 (OCT2) | cellular accumulation by fluorescence microscopy, OAT3 (OAT3)
